# Source: patent US20040009601A1, “Methods for the regeneration and transformation of cotton” (The Regents of the University of California, priority 2002, published 2004)
# Tested on: Maxxa hypocotyl explants
# Test: Callus induction from Maxxa hypocotyl explants, orthogonal array L9 factorial experiment
# Format: cell-based, Gossypium hirsutum L. cv. Maxxa
# Settings: for Σ RG1: regeneration potential, mean Y of factor 1: factor 1 = 0 mg l-1 of the hormone; for Σ RG2: regeneration potential, mean Y of factor 2: factor 2 = 2,4-D 0.05, NAA 1.0, kinetin 0.5 mg l-1; for Σ RG3: regeneration potential, mean Y of factor 3: factor 3 = 2,4-D 0.1, NAA 2.0, kinetin 1.0 mg l-1; for Σ RG: mean of Σ RG1, Σ RG2 and Σ RG3: per hormone over the three factor levels
# Method: Hypocotyl explants ˜5 mm in length were excised from 7-10 day-old seedlings under sterile conditions. Explants were placed in a 25×100-mm petri dish (one seedling per plate) containing ˜30 ml of callus induction medium, sealed with parafilm and cultured at 28±2° C. under a combination of cool white and full spectrum fluorescent lights with a 16-hour light/8-hour dark cycle for 3 to 4 weeks to induce callus formation.
# Initial experiments were conducted using MS2NK (2 mg 1^−1 NAA substituted for 2,4-D in MS2DK, Trolinder and Goodin, 1987), a medium used for callus induction in the elite regenerable Coker 312 line. To optimize a callus induction medium for Maxxa, a factorial experiment using an Orthogonal Array L9 (3^4) experimental design ((Taguchi, Introduction to Quality Engineering, Tokyo, Japan (1986)) was performed to determine the best hormonal regime for induction of callus capable of undergoing somatic embryogenesis. The optimal combination of NAA, 2,4-D and kinetin was evaluated at varying concentrations (Table 1) in basal MS medium (Murashige and Skoog, Physiol. Plant. 15:473-497 (1962)) in four independent experiments. In each experiment, 18 hypocotyl explants were excised from 24-48 individual seedlings to provide two explants per seedling per treatment. Each replicated treatment was evaluated for the ability to proliferate a friable callus that was yellowish-green to creamy in color, granular in texture, and readily dispersed in liquid medium. Calli characteristics were scored at 3 weeks and 6 weeks for color, texture, dispersiveness in liquid media, and cell/callus size as the parameters for evaluation. Based on these criteria, the optimized Maxxa callus induction medium (MCIM) selected for cotton regeneration is comprised of MS salts (GibcoBRL Cat no. 11117-074) supplemented with 100 mg 1^−1 myo-inositol, B5 vitamins (10 mg 1^−1 thiamine-HCl; 1 mg 1^−1 nicotinic acid; 1 mg 1^−1 pyridoxine), 0.75 g 1^−1 MgCl2, 30 g 1^−1 glucose, 2.0 mg 1^−1 NAA and 0.05 mg 1^−1 2,4-D. The medium was adjusted to pH 5.8 before adding agar (2.5 g 1^−1 Phytagel).
# A factorial experiment using an orthogonal array L9 (3^4) design was conducted to determine optimal conditions for callus induction and somatic embryogenesis by Maxxa hypocotyl explants. Different hormonal combinations of auxin (NAA and/or 2,4-D) and cytokinin (kinetin) were tested at varying concentrations (Table 1) in basal MS medium (Murashige and Skoog, supra). Each of the 9 replicated treatments was scored for callus initiation efficiency (Y) based on two components—(I) the mean of the number of explants producing good quality callus and (II) embryogenic potential, that is, the developmental transition of undifferentiated callus to somatic embryogenesis—expressed as a percent (Table 1). The production and proliferation of callus considered of “good quality” was based on four criteria: color, texture, dispersiveness in liquid media, and size/shape of undifferentiated cells. Within each category, each callus was scored with a rating of 1 to 4 based on the following parameters: Color—dark green (4) to parrot-green/creamy (1), Texture—hard and compact (4) to soft and friable (1), Dispersiveness—intact (4) to readily dispersed cell clumps (1) in liquid medium, Size/Shape—small cells/compact callus (<1 mm) (4) to nodular, “grainy” callus (>2 mm) (1). Good quality callus received ratings of “1” in each category. The embryogenic potential (II) of Y represents the ability of undifferentiated parenchymal cells to organize into meristematic centers and successfully undergo somatic embryogenesis. The factors considered in determining II/Y included the formation of organized cell clusters in embryogenic cultures, the types of embryos produced (globular, heart-shaped, torpedo), and the color of the somatic embryo (white/transparent vs. yellow/opaque). […]
Compound,"Importance of the hormone for callus induction from Maxxa hypocotyls, judged from Σ RG","Σ RG1: regeneration potential, mean Y of factor 1 [%]","Σ RG2: regeneration potential, mean Y of factor 2 [%]","Σ RG3: regeneration potential, mean Y of factor 3 [%]","Σ RG: mean of Σ RG1, Σ RG2 and Σ RG3 [%]"
"O=C(O)COc1ccc(Cl)cc1Cl [2,4-D, 2,4-dichlorophenoxyacetic acid]",essential for callus induction,5.77,61.87,77.07,71.30
"c1coc(CNc2ncnc3[nH]cnc23)c1 [Kinetin, kinetin]",not critical,63.27,32.78,46.65,32.49
